Laboratory results as given in patent US5455228A, “Peptidase resistant thrombin receptor peptide ligand” (The Research Foundation of State University of New York, priority 1993, dated 1995).
Blank lines part the entries; values can stand above or below the compound they belong to. Numbered stars: 1 amine (or outer) side, 2 acyl side, 3 side chain; on linkers, the order of the positions; unused ones are H or OH. Square brackets hold non-standard residues; d marks the D form. Ends that are not written are not given here. Peptide text beside a SMILES is read from it. ξ: configuration not given here. ξIsoserine = O=C(C(O)CN[*:1])[*:2]

Columns and labels:
[1] = target: T1, plasma aminopeptidase M (Homo sapiens, UniProt P15144); assay: Peptide digestion during incubation with platelet-poor plasma, HPLC; assay type: in vitro ADME
T1 construct: from tissue; host or cells: human citrated platelet-poor plasma
T1 sequence (P15144 whole entry): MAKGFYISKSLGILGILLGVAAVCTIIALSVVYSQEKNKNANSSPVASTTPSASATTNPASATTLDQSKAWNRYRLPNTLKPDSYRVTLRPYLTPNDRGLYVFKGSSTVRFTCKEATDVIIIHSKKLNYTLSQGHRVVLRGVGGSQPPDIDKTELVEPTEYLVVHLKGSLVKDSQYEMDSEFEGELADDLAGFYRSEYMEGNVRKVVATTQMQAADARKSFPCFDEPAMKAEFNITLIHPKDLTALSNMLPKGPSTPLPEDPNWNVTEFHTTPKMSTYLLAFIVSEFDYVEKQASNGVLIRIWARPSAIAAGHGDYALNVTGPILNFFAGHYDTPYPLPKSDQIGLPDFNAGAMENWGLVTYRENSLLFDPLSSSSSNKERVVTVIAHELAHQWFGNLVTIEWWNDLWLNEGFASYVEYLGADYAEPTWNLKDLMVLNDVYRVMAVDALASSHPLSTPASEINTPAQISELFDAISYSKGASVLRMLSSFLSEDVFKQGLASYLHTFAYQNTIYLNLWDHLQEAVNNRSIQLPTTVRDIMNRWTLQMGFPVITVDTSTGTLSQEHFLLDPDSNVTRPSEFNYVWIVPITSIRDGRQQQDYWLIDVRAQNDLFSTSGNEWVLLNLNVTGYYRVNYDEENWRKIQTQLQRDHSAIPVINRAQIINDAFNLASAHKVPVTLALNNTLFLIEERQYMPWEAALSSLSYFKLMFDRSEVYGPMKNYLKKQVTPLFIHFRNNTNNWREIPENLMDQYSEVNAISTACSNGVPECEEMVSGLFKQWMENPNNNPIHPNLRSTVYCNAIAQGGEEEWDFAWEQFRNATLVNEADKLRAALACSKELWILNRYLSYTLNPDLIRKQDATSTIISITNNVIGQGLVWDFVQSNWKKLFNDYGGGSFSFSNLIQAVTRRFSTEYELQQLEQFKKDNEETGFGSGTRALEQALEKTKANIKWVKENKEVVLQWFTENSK
Description: (§1) Peptide Digestion Studies. For T-11 amino acids 1 to 11 of SEQ ID NO:1 and (D-Ser)T-11 SEQ ID NO:11 digestions, 0.11 volume of 20 mM peptide in 0.15M NaCl, 0.01 Tris/HCl, pH 7.4, was added to citrated platelet-poor plasma to achieve a final concentration of 2 mM. Samples were incubated for 2 hours at 37° C. and then the plasma proteins were precipitated with 9-10% trichloroacetic acid at 4° C. for at least 30 min. After centrifugation at 12000 g at 22° C. for 3 min., the supernatant was analyzed to determine peptide cleavage by reverse-phase HPLC (C8; Applied Biosystems 300 RP Aquapore; 220×4.6-mm column); elution was with 0.1% trifluoroacetic acid with a 0-60% acetonitrile gradient.
(§2) To determine the amino acid sequence of the digestion products of T-11 amino acids 1 to 11 of SEQ ID NO:1 and (D-Ser)T-11 SEQ ID NO:11 and to assess their ability to aggregate platelets, the peptide (2 mM) was incubated with citrated PPP for 2 hours at 37° C., plasma proteins were precipitated with trichloroacetic acid, and the supernatant after centrifugation was both analyzed and fractionated on the analytical reverse-phase column. Peak fractions were dried in a vacuum centrifuge (Speed-Vac, Savant, Farmingdale, N.Y.) and dissolved in either buffer (0.15M NaCl and 0.01 M Tris/HCl, pH 7.4) for aggregation studies or 0.1% trifluoroacetic acid for amino acid analysis. Quantitative amino acid analysis of the peptides was performed with commercial reagents and equipment (Pico-Tag workstation and C-18 Pico-Tag column; Waters-Millipore, Bedford, Mass.). The amino acid sequence could then be inferred from the amino acid content of each peak.
(§3) For the Ser-Phe-Leu-Leu-Arg-Asn (SFLLRN) amino acids 1 to 6 of SEQ ID NO:1 and (iso-Ser)-Phe-Leu-Leu-Arg-Asn ((iso-S))FLLRN SEQ ID NO:7 studies, 2 mM peptide in buffer (0.15 M NaCl, 0.01 M Tris/HCl, pH 7.4) was mixed with an equal volume of citrated platelet-poor plasma (1:1) and separately with an equal volume of buffer and incubated at 37° C for variable periods of time. Aliquots were removed at 15, 30, 45, 60 and 120 minutes and analyzed for both the ability to aggregate platelets and peptide cleavage.
(§4) For peptide digestion studies for SFLLRN amino acids 1 to 6 of SEQ ID NO:1 and (iso-S)FLLRN SEQ ID NO:7, samples were removed at various times and analyzed for peptide digestion by HPLC after precipitating the plasma proteins with trichloroacetic acid.

[2] = target: T1, plasma aminopeptidase M; assay: Loss of peptide platelet aggregating activity during plasma incubation; assay type: in vitro ADME; details: for aggregating activity after plasma incubation: 125 μM peptide; for platelet aggregating activity when incubated in plasma: 2 mM peptide mixed 1:1 with platelet-poor plasma, up to 2 hours
Description: (§5) Platelet Aggregation. Platelet Rich Plasma (hereinafter "PRP") was obtained from human blood anticoagulated with sodium citrate (0.01 volume of 40% trisodium citrate) or acid-citrate-dextrose (hereinafter "ACD") solution A (ACD-A; 8.5 mL of blood: 1.5 mL of ACD-A) by centrifugation at 700 g for 3.5 min. at 22° C. Platelet-poor plasma (hereinafter "PPP") was obtained by centrifuging the PRP at 2000g for 8 min. at 22° C. The pH of the citrated PRP after preparation was about 7.7 whereas the pH of the ACD-A PRP was about 7.0. The pH of the PRP was adjusted, when necessary with 1M NaOH or 1M HCl and maintained at about 7.70. Platelet aggregation was performed in a dual-channel aggregometer (Chronolog, Hayertown, Pa.) using matched stir bars.
[…] Aliquots were removed at 15, 30, 45, 60 and 120 minutes and analyzed for both the ability to aggregate platelets and peptide cleavage.

[3] = target: T2, thrombin receptor on platelets (Homo sapiens, UniProt P25116); assay: Dose response of peptide-induced platelet aggregation in platelet-rich plasma; assay type: cell-based
T2 construct: Citrated platelet-rich plasma (PRP; 307,000 platelets/μl, pH 7.0; 0.45 ml) was stirred in a cuvette at 37° C; endogenous in cells; host or cells: human platelets in citrated platelet-rich plasma
T2 sequence (P25116 22-425): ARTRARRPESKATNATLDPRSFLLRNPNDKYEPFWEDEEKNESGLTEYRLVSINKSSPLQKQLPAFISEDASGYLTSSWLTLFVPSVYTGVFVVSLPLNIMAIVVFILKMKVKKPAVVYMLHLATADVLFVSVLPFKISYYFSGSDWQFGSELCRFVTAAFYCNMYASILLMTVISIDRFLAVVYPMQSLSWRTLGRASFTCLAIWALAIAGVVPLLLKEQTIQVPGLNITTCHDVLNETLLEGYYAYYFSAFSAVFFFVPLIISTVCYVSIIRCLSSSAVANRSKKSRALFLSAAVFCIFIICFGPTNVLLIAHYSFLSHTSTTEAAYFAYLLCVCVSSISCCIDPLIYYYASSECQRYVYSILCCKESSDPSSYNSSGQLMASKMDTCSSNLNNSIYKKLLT
Description: as §5
Dose Response of Peptide-Induced Aggregation. Citrated platelet-rich plasma (PRP; 307,000 platelets/μl, pH 7.0; 0.45 ml) was stirred in a cuvette at 37° C. and then […] of Ser-Phe-Leu-Leu-Arg-Asn-Pro-Asn-Asp-Lys-Tyr (T-11) amino acids 1 to 11 of SEQ ID NO:1, (D-Ser)-Phe-Leu-Leu-Arg-Asn-Pro-Asn-Asp-Lys-Tyr ((DS)T-11) SEQ ID NO:11, Ser-Phe-Leu-Leu-Arg-Asn amino acids 1 to 6 of SEQ ID NO:1 or (iso-Ser)-Phe-Leu-Leu-Arg-Asn SEQ ID NO:7 peptide was added to achieve the final concentration as follows: Ser-Phe-Leu-Leu-Arg-Asn-Pro-Asn-Asp-Lys-Tyr amino acids 1 to 11 of SEQ ID NO:1 was added to a maximum concentration of 2.9 μM; (D-Ser)-Phe-Leu-Leu-Arg-Asn-Pro-Asn-Asp-Lys-Tyr SEQ IS NO:11 was added to a maximum concentration of 940 μM; Ser-Phe-Leu-Leu-Arg-Asn amino acids 1 to 6 of SEQ ID NO:1 was added to a maximum concentration of 1.7 μM; (iso-Ser)-Phe-Leu-Leu-Arg-Asn SEQ ID NO:7 was added up to a maximum concentration of 4.9 μM.

[4] = test system: T3, plasma aminopeptidase M; assay: Peptide digestion during incubation with platelet-poor plasma, HPLC; assay type: in vitro ADME, human; details: human; for remaining at 2 h, 1 mM: 120 min; for metabolised at 2 h, 1 mM: incubated with plasma at 37° C., about two hours, read-out: peptide cleavage
T3 construct: from tissue; host or cells: human citrated platelet-poor plasma
Description: as §1, §2, §3, §4

[5] = target: aminopeptidase M (Homo sapiens, UniProt P15144); details: Coller et al. 1992; not with thrombin; cited from earlier work
Chain of aminopeptidase M (P15144 whole entry, species assumed): as the sequence (P15144 whole entry) above

[6] = target: T1, plasma aminopeptidase M; details: previously demonstrated, Coller et al. 1992; cited from earlier work
[7] = test system: gel-filtered platelets; details: Vu et al. 1991; cited from earlier work
[8] = 1 mM final, 50% platelet-poor plasma, 37° C., 2 hours
[9] = 50% citrated platelet-poor plasma, 1 mM final, 50% platelet-poor plasma, 37° C., read-out: percentage remaining intact

Compound: CC(C)C[C@H](NC(=O)[C@H](Cc1ccccc1)NC(=O)[C@H](N)CO)C(=O)N[C@@H](CC(C)C)C(=O)N[C@@H](CCCNC(=N)N)C(=O)N[C@@H](CC(N)=O)C(=O)N1CCC[C@H]1C(=O)N[C@@H](CC(N)=O)C(=O)N[C@@H](CC(=O)O)C(=O)N[C@@H](CCCCN)C(=O)N[C@@H](Cc1ccc(O)cc1)C(N)=O [(DS)T-11, (D-Ser)-Phe-Leu-Leu-Arg-Asn-Pro-Asn-Asp-Lys-Tyr] (H-[dS]FLLRNPNDKY-NH2)
peptide cleavage (in words) ([1]; 2 mM peptide, platelet-poor plasma, 37° C., 2 hours): did not undergo any identifiable cleavage
aggregating activity retained after plasma incubation ([2]; incubated with plasma for 1 hour): retained more than half its aggregating activity

platelet activating activity relative to SFLLRN ([3]; citrated PRP): 15-20%
platelet aggregating activity (in words) ([3]; citrated PRP): substantially active
EC50 ([3]; citrated PRP, 37° C., read-out: concentration to achieve half-maximal aggregation): ~4 µM
slope of platelet disaggregation phase ([3]; peptide at 3.7 μM, dose giving equivalent peak aggregation response): 4 U/min
extent of digestion (in words) [1, 8]: minimal digestion
peptide remaining intact (in words) ([1]; 1 mM final, 50% platelet-poor plasma, 37° C., first 60 min): Virtually all
peptide cleavage (in words) ([1]; incubated with plasma at 37° C., 45 minutes): did not undergo identifiable cleavage
remaining at 2 h, 1 mM [4, 9]: ~83%
metabolised at 2 h, 1 mM ([4]; citrated platelet-poor plasma): ~17%
aggregating activity after plasma incubation ([2]; 45 min): retained its full aggregating activity
aggregating activity after plasma incubation ([2]; 1 hour): some decrease in activity
aggregating activity after plasma incubation ([2]; 2 hours): some aggregating activity remained
platelet aggregating activity when incubated in plasma ([2]; 37° C.): lost little if any activity
peptide activity after incubation with buffer rather than plasma ([2]; buffer, 37° C., 2 hours): no decrease in peptide activity
platelet aggregating activity after plasma incubation ([2]; plasma at 37° C., at least two hours): remained unchanged
Compound: CC(C)C[C@H](NC(=O)[C@H](Cc1ccccc1)NC(=O)C(O)CN)C(=O)N[C@@H](CC(C)C)C(=O)N[C@@H](CCCNC(=N)N)C(=O)N[C@@H](CC(N)=O)C(N)=O (stereo partly drawn) [(iso-S)FLLRN, (iso-Ser)-Phe-Leu-Leu-Arg-Asn-NH2] (ξIsoserine-FLLRN-NH2)

time to detectable cleavage ([1]; 1 mM final, 50% platelet-poor plasma, 37° C.): ≤ 10 min
extent of digestion (in words) [1, 8]: nearly complete digestion
metabolised at 0.25 h, 1 mM ([4]; 50% citrated platelet-poor plasma, 1 mM final, 50% platelet-poor plasma, 37° C., 15 min, read-out: peptide no longer intact): 35%
remaining at 0.5 h, 1 mM ([4]; 50% citrated platelet-poor plasma, 1 mM final, 50% platelet-poor plasma, 37° C., 30 min, read-out: percentage remaining intact): 49%
remaining at 0.75 h, 1 mM ([4]; 50% citrated platelet-poor plasma, 1 mM final, 50% platelet-poor plasma, 37° C., 45 min, read-out: percentage remaining intact): 23%
remaining at 1 h, 1 mM ([4]; 50% citrated platelet-poor plasma, 1 mM final, 50% platelet-poor plasma, 37° C., 60 min, read-out: percentage remaining intact): 16%
remaining at 2 h, 1 mM [4, 9]: 4%
metabolised at 2 h, 1 mM ([4]; citrated platelet-poor plasma): 96%
time to loss of all aggregating activity ([2]; 125 μM peptide incubated with plasma): ≤ 18 min
time to decrease of platelet aggregating activity ([2]; incubated with plasma at 37° C.): ≤ 15 min
platelet aggregating activity after plasma incubation ([2]; plasma at 37° C., 60 minutes): nearly lost
Compound: CC(C)C[C@H](NC(=O)[C@H](CC(C)C)NC(=O)[C@H](Cc1ccccc1)NC(=O)[C@@H](N)CO)C(=O)N[C@@H](CCCN=C(N)N)C(=O)N[C@@H](CC(N)=O)C(N)=O [SFLLRN]
platelet aggregating activity when incubated in plasma ([2]; 37° C.): rapidly lost platelet aggregating activity

Compound: CC(C)C[C@@H](N)[C@H](O)C(=O)N[C@H](C(=O)N[C@H](C(=O)N[C@@H](CC(=O)O)C(=O)O)C(C)C)C(C)C [amastatin]
effect on aggregation induced by T-11 [5]: enhanced aggregation induced by T-11

remaining at 2 h, 2 mM ([4]; citrated platelet-poor plasma, 2 mM peptide, platelet-poor plasma, 37° C., 2 hours, read-out: peptide remaining intact): 34%
time to loss of all aggregating activity ([2]; incubated with plasma): ≤ 60 min
incubation time sufficient to produce significant inhibition of aggregating ability ([2]; preincubation in plasma at 37° C.): ≤ 10 min
Compound: SFLLRNPNDKY-NH2 [T-11, Ser-Phe-Leu-Leu-Arg-Asn-Pro-Asn-Asp-Lys-Tyr]
aggregating activity when incubated in plasma [6]: lost aggregating activity
platelet aggregating ability after preincubation in plasma ([2]; plasma at 37° C.): progressive loss of platelet aggregating ability

Compound: SFLLRNPNDKYEPF [T-14, 14 amino acid peptide mimicking the new amino terminus of the cleaved thrombin receptor]
aggregating activity when incubated in plasma [6]: lost aggregating activity
aggregation of gel-filtered platelets [7]: able to aggregate gel-filtered platelets directly
